From US20230346969A1, “INTERMEDIATE FOR PREPARING ANTIBODY-DRUG CONJUGATE (ADC), PREPARATION METHOD THEREFOR, AND USE THEREOF” (priority 2020, published 2023)
pIC50: −log10 of the molar value.

How the values were obtained:
HCC1806 cells = assay: HCC1806 mouse transplanted tumor model; format: in vivo, BALB/c nu/nu mice
Source text: (§1) Five-week-old female athymic BALB/c nu/nu mice were purchased from Charles River Company (Shanghai, China), and mice were randomly divided into 5-6 mice/group. Animal handling and procedures were approved and performed in accordance with the requirements of the Institutional Animal Care and Use Committee (IACUC) of Shanghai Institute of Materia Medica, Chinese Academy of Sciences. All models were inoculated subcutaneously on the side of mice. BXPC-3, HCC1806 and NCIH1688 cells were established by injecting and homogenizing 5 × 10^6 cells in Matrigel matrix. COLO205 cells were established by injecting and suspending 1 × 10^7 cells in Matrigel matrix. […] The percentage of inhibition was calculated by the following formula: (1-average tumor volume of the treatment group/average tumor volume of the control group)×100%. Toxicity of the different treatment groups was assessed by monitoring weight loss.
Mice inoculated with HCC1806 cells (n = 6 per group) were treated on days 7, 10 and 14. Tumors were measured two or three times per week. On day 20, statistical significance between treatment and control groups was assessed using a two-tailed t-test. *P <0.05, comparing hRS7-VK-PTX treatment group with hRS7-VK-SN38 treatment group, data = mean ± SD, the results are shown in FIG. 7b.

COLO205 cells = assay: COLO205 mouse transplanted tumor model; format: in vivo, BALB/c nu/nu mice; details: COLO205 xenograft, intraperitoneal, days 7, 11, 15, 19; p<0.001 vs hRS7-VK-SN38
Source text: as §1
Mice inoculated with COLO205 cells (n = 6 per group) were treated with ADC or control drug on days 7, 11, 15, and 19, and tumor volume was measured two or three times a week. Statistical significance between treatment and control groups was assessed using a two-tailed t-test. ***P<0.001, comparing hRS7-VK-PTX with hRS7; p<0.001, comparing hRS7-VK-PTX with hRS7-VK-SN38, data = mean ± SD, the results are shown in FIG. 1c.

[1] = Adverse effects and weight loss of mice treated in the efficacy models; format: in vivo, BALB/c nu/nu mice; details: mouse, in vivo
Source text: Five-week-old female athymic BALB/c nu/nu mice were purchased from Charles River Company (Shanghai, China), and mice were randomly divided into 5-6 mice/group. Animal handling and procedures were approved and performed in accordance with the requirements of the Institutional Animal Care and Use Committee (IACUC) of Shanghai Institute of Materia Medica, Chinese Academy of Sciences. All models were inoculated subcutaneously on the side of mice. BXPC-3, HCC1806 and NCIH1688 cells were established by injecting and homogenizing 5 × 10^6 cells in Matrigel matrix. COLO205 cells were established by injecting and suspending 1 × 10^7 cells in Matrigel matrix. After the tumor volume reached about 200 mm^3, the tumor-bearing mice were randomly divided into treatment groups and a control group according to the tumor volume. Each drug was administered intraperitoneally. Mice were injected at doses of 3 or 10 mg/kg (10 mL/kg). Tumor volume was defined as length × ½ × width × width. The percentage of inhibition was calculated by the following formula: (1-average tumor volume of the treatment group/average tumor volume of the control group)×100%. Toxicity of the different treatment groups was assessed by monitoring weight loss.

[2] = tested on: tumor cell lines with different expression levels of Trop-2; assay: Cell viability assay (CCK-8), comparison across the cell panel; format: cell-based
Experimental: (§2) Cell viability was determined using Cell Counting Kit 8 (CCK-8). Cells were seeded into 96-well plates at 3000-10000 cells/well. After incubation overnight, drugs were added at different concentrations. Plates were incubated in a 5% CO2, 37° C. humidified chamber for 96 hours. CCK8 reagent was added thereto and the plates were placed back to the incubator until the absorbance at 450 nm of untreated control cells was greater than 1.0. Growth inhibition was measured as the percent growth relative to untreated cells. Dose response curve was generated from the mean values of two or three tests, and IC50 values were calculated using Prism GraphPad software.
(§3) The anti-tumor efficacy of different payloads on different tumor cell lines was detected by CCK-8, and the results are shown in FIG. 5.

[3] = tested on: mixture of Trop-2-positive tumor cells BXPC-3 and Trop-2-negative tumor cells NCIH1688; assay: Bystander effect: transplanted tumor from mixture of BXPC-3 and NCIH1688 cells; format: in vivo, BALB/c-nu/nu mice; details: 10 mg/kg, transplanted tumors heterogeneously expressing Trop-2
Source text: Five-week-old female athymic BALB/c nu/nu mice were purchased from Charles River Company (Shanghai, China), and mice were randomly divided into 5-6 mice/group. Animal handling and procedures were approved and performed in accordance with the requirements of the Institutional Animal Care and Use Committee (IACUC) of Shanghai Institute of Materia Medica, Chinese Academy of Sciences. All models were inoculated subcutaneously on the side of mice. BXPC-3, HCC1806 and NCIH1688 cells were established by injecting and homogenizing 5 × 10^6 cells in Matrigel matrix. COLO205 cells were established by injecting and suspending 1 × 10^7 cells in Matrigel matrix. After the tumor volume reached about 200 mm^3, the tumor-bearing mice were randomly divided into treatment groups and a control group according to the tumor volume. Each drug was administered intraperitoneally. […] The percentage of inhibition was calculated by the following formula: (1-average tumor volume of the treatment group/average tumor volume of the control group)×100%. Toxicity of the different treatment groups was assessed by monitoring weight loss.
A mixture of Trop-2-positive tumor cells BXPC-3 and Trop-2-negative tumor cells NCIH1688 or NCIH1688 cells alone were inoculated into BALB/c-nu/nu mice (FIG. 1e, right panel), and the “bystander effect” of hRS7-VK-PTX was detected in a mouse transplanted tumor model.

NCIH2452 = assay: Cell viability assay (CCK-8); format: cell-based; details: ADCs; CCK-8, 96 hours; cell 'HOC2401' [sic], Lung; read-out: IC50 (95% Cl)
Experimental: as §2, §3

HCC1806 = assay: Cell viability assay (CCK-8); format: cell-based; details: ADCs; CCK-8, 96 hours; 'HOC1906' [sic], Mamary; read-out: IC50 (95% Cl)
Experimental: as §2, §3

SCLC-21H = assay: Cell viability assay (CCK-8); format: cell-based; details: ADCs; CCK-8, 96 hours; SRM-C-21H; read-out: IC50 (95% Cl)
Experimental: as §2, §3

MDA-MB-468 = assay: Cell viability assay (CCK-8); format: cell-based; details: ADCs; CCK-8, 96 hours; SRM-M9-409, Mammary; read-out: IC50 (95% Cl)
Experimental: as §2, §3

SKBR3 cells = assay: Endocytosis and intracellular localization of ADC by confocal microscopy; format: cell-based; details: 5 µg/mL, 37° C., 45 or 90 min
Experimental: SKBR3 cells were incubated with 5 µg/mL of hRS7-VK-PTX or hRS7-VK-SN38 in a 24-well plate (1 × 10^4 cells/well) in a 5% CO2, 37° C. incubator for 45 or 90 min. Cells were washed once with PBS, fixed and permeabilized. After washing, cells were stained with 488 goat anti-human IgG (H&L) or 555 anti-rabbit IgG F(ab′)2 fragment. Nuclear DNA was stained with 4′,6-dimidyl-2-phenylindole (DAPI). Immunofluorescence was recorded with an Olympus BK71 confocal microscope.
SKBR3 cells were incubated with ADC molecules at 37° C. for 45 or 90 min. Unbound ADC was removed by washing cells in a culture medium, then the cells were fixed and permeabilized. The marker proteins LAMP-1, GM130 and clathrin were detected with their respective antibodies and a secondary antibody conjugated to Alex®555 (red). Anti-Trop-2 ADC was detected with DyLight®488-conjugated secondary antibody (green). DAPI was used to stain nuclear DNA (blue).

BXPC-3 cells = assay: BXPC-3 mouse transplanted tumor model; format: in vivo, BALB/c nu/nu mice
Source text: as §1
Mice inoculated with BXPC-3 cells (n = 5 per group) were treated with ADC or naked antibody on days 5, 13, and 21, and tumors were measured two or three times a week. On day 25, statistical significance between treatment and control groups was assessed using a two-tailed t-test. ***P<0.001, compared with hRS7 treatment group; *P<0.05, comparing hRS7-VK-PTX treatment group with PTX treatment group; compared with hRS7 treatment group, P<0.001, data=mean ± SD, the results are shown in FIG. 7a.

hRS7-VK-PTX
tumor inhibitory effect compared with PTX (HCC1806 cells; HCC1806 model, 30 mg/kg (1.3 mg/kg PTX equivalent)): comparable to that of 10 mg/kg of PTX
inhibition of transplanted tumor (HCC1806 cells; HCC1806 xenograft, intraperitoneal, days 7, 10, 14, P<0.05 vs hRS7-VK-SN38 on day 20): more effective than hRS7-VK-SN38
inhibition of transplanted tumor (COLO205 cells): more effective than hRS7-VK-SN38
adverse effects or weight loss in treated mice [1]: did not cause adverse effects or weight loss
efficacy of ADC in tumor cell lines with low expression of Trop-2 ([2]; COL0205, MDA-MB-231, SK - MES-1, Capan-1, NCIH2452): more effective than hRS7-VK-MMAE and hRS7-VK-SN38
inhibitory effect in PTX-resistant tumor cell lines ([2]; SKBR3, CFPAC-1, MDA-MB-231 and COLO205): good inhibitory effect
tumor growth inhibition index (TGI) [3]: 99.5%
pIC50 (NCIH2452): 8.85
pIC50 (HCC1806): 9.58
pIC50 (SCLC-21H): 8.53
pIC50 (MDA-MB-468): 8.57
internalization and intracellular localization (SKBR3 cells): co-localization of hRS7-VK-PTX molecule with lysosomes and clathrin heavy chain
inhibition of transplanted tumor (BXPC-3 cells; BXPC-3 xenograft, intraperitoneal, days 5, 13, 21): more effective than hRS7-VK-SN38
inhibition of transplanted tumor compared with PTX (BXPC-3 cells; BxPC-3 model, 3 mg/kg of hRS7-VK-PTX, P = 0.0248): more effective than 10 mg/kg of PTX
